The target of this assay is T1, Aβ1-42 (Homo sapiens, UniProt P05067).
T1 construct: Aβ1-42 lyophilized powder (Bachem) was reconstituted in hexafluoroisopropanol (HFIP) to 1 mM; purchased Bachem
As to the kind of experiment: Thioflavin T spectrofluorescence assay: inhibition of Aβ1-42 aggregation. It counts as biochemical. The method, then: The objective of this example was to evaluate the capacity of the compounds of the invention to inhibit the aggregation of (Aβ)1-42 peptide and to disaggregate pre-aggregated Aβ1-42 using a thioflavin T spectrofluorescence assay.
Aβ1-42 lyophilized powder (Bachem) was reconstituted in hexafluoroisopropanol (HFIP) to 1 mM. The peptide solution was sonicated for 15 min at room temperature, agitated overnight, and aliquots were placed into non-siliconized microcentrifuge tubes. The HFIP was then evaporated under a stream of argon. The resulting peptide film was dried under vacuum for 10 min, tightly sealed and stored at −80° C. until used.
Aβ1-42 peptide film was dissolved in DMSO to reach 400 μM. Assay solution in PBS was prepared in non-siliconized incubation tubes to reach the following concentrations: 330 μM small molecule, 33 μM Aβ1-42, 10 μM thioflavin T (ThT), and 12.8% DMSO. Therefore, the final molar ratio of small molecule to Aβ1-42 was 10:1. A positive control without a small molecule was prepared to measure maximum RFU. A negative control without Aβ1-42 was prepared for each small molecule. 3-aminopyrazole trimer (Trimer) was tested in all assays to ascertain reproducibility between independent experiments. The solutions were then incubated for 24 h at 37° C., and the spectrofluorescence (relative fluorescence units; RFU) read in six replicates in black 384-well assay plates (Perkin-Elmer) on a Perkin-Elmer FluoroCount spectrofluorometer. Inhibition of aggregation is expressed as mean % inhibition±1 standard deviation (SD) according to the following equation: […]

The mark [1] stands for this setting: Table 3, 10:1 small molecule to Aβ1-42 molar ratio, 24 h at 37° C., mean ± SD of two independent experiments, read-out: % Inhibition.
[2] abbreviates: 10:1 small molecule to Aβ1-42 molar ratio.

Where a name gives a salt, the structure may show the parent alone. Read-outs that look alike come from different tables or passages of the source.

T1 sequence (P05067 672-713 limits assumed): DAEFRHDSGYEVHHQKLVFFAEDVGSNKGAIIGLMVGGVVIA

`c1csc(-c2c[nH]nc2NCCNc2n[nH]cc2-c2cccs2)c1` [Compound 1r, N^1,N^2-bis(4-(Thiophen-2-yl)-1H-pyrazol-3-yl)ethane-1,2-diamine bishydrochloride]: 330 µM produced 49.5 ± 0.8% inhibition (24 h).
With `c1ccc(Cc2cc(NCCNc3cc(Cc4ccccc4)[nH]n3)n[nH]2)cc1` [Compound 1l, N^1,N^2-bis(5-Benzyl-1H-pyrazol-3-yl)ethane-1,2-diamine dihydrochloride], for the setting “24 h”, 330 µM produced 57.5 ± 7.6% inhibition.
As to `c1cc(NCCNc2cc[nH]n2)n[nH]1` [Compound 1b, N^1N^2-bis(1H-Pyrazol-3-yl)ethane-1,2-diamine bishydrochloride], the inhibition at 330 µM under setting [1] was determined as 9.7 ± 0.3%.
Take `c1c(NCCNc2cc(C3CC3)[nH]n2)n[nH]c1C1CC1` [Compound 1i, N^1,N^2-bis(5-Cyclopropyl-1H-pyrazol-3-yl)ethane-1,2-diamine bishydrochloride]: at 330 µM the inhibition (24 h) was 53.6 ± 27%.
Regarding `Cc1[nH]nc(NCCNc2n[nH]c(C)c2-c2ccccc2)c1-c1ccccc1` [Compound 1c, N^1,N^2-bis(5-Methyl-4-phenyl-1H-pyrazol-3-yl)ethane-1,2-diamine bishydrochloride], under “24 h”, testing at 330 µM gave an inhibition of 52.7 ± 1.3%.
As for `c1ccc(Cc2c[nH]nc2NCCNc2n[nH]cc2Cc2ccccc2)cc1` [Compound 1q, N^1,N^2-bis(4-Benzyl-1H-pyrazol-3-yl)ethane-1,2-diamine dihydrochloride], the inhibition at 330 µM (24 h) was found to be 59.2 ± 4.9%.
In the case of `c1csc(-c2cc(NCCNc3cc(-c4cccs4)[nH]n3)n[nH]2)c1` [Compound 1h, N^1,N^2-bis(5-(2-Thienyl)-1H-pyrazol-3-yl)ethane-1,2-diamine bishydrochloride], the inhibition at 330 µM (24 h) was 69.9 ± 1.4%.
As for `COc1ccc(-c2c(NCCNc3n[nH]c(C)c3-c3ccc(OC)cc3)n[nH]c2C)cc1` [Compound 1t, N^1,N^2-bis(5-Methyl-4-methoxyphenyl)-1H-pyrazol-3-yl)ethane-1,2-diamine dihydrochloride], for the setting “24 h”, the inhibition at 330 µM was 31.4 ± 0.5%.
In the case of `c1coc(-c2cc(NCCNc3cc(-c4ccco4)[nH]n3)n[nH]2)c1` [Compound 1m, N^1,N^2-bis(5-(2-Furyl)-1H-pyrazol-3-yl)ethane-1,2-diamine bishydrochloride], the “inhibition of Aβ1-42 aggregation, in words” value (from here on “inhibition … in words”) under setting [2] is “strong inhibition of aggregation”. Further, the inhibition at 330 µM (24 h) was 52.9 ± 2.7%.
Consider `Cc1cc(NCCNc2cc(C)[nH]n2)n[nH]1` [Compound 1a, N^1,N^2-bis(5-Methyl-1H-pyrazol-3-yl)ethane-1,2-diamine bishydrochloride], for which the inhibition at 330 µM (24 h) came to 37.6 ± 0.7%.
As for `Cc1cc(NCCNc2n[nH]c(C)c2-c2ccc(Cl)cc2)n[nH]1` [Compound 1k, N,N′-(4-(4-Chlorophenyl)-5-methyl-1H-pyrazol-3-yl-N′-(5-methyl-1H-pyrazol-3-yl)ethane-1,2-diaminebishydrochloride], the inhibition at 330 µM (Table 5, 10:1 small molecule to Aβ1-42 molar ratio, 24 h at 37° C., mean ± SD of two independent experiments, read-out: % inhibition) came out at 40.4 ± 13%.
Molecule `Cc1cc(NC(=O)C(=O)Nc2cc(C)[nH]n2)n[nH]1` [Ampox, reference compound] returned an inhibition at 330 µM (24 h) of 38.7 ± 5.2%.
Regarding `Cc1cc(NCC(=O)Nc2cc(C)[nH]n2)n[nH]1` [Compound 1w, N-(5-Methyl-1H-pyrazol-3-yl)-2-(5-methyl-1H-pyrazol-3-ylamino)acetamide], the inhibition at 330 µM under setting [1] was determined as 7.3 ± 10.4%.
With `Cc1ccc(-c2cc(NCC(C)(C)CNc3cc(-c4ccc(C)cc4)[nH]n3)n[nH]2)cc1` [Compound 1an, dihydrochloride], the “inhibition … in words” value under setting [2] is reported as “strong inhibition of aggregation”. In addition, the inhibition at 330 µM (24 h) stood at 55.9 ± 7.4%.
With `Cc1ccc(-c2cc(NCc3ccc(CNc4cc(-c5ccc(C)cc5)[nH]n4)cc3)n[nH]2)cc1` [Compound 1ap, N,N′-(1,4-Phenylenebis(methylene))bis(5-p-tolyl-1H-pyrazol-3-amine) dihydrochloride], under setting [2], the “inhibition … in words” value is listed as “strong inhibition of aggregation”. The molecule further registered an inhibition at 330 µM (24 h) of 66.2 ± 1.6%.
`c1[nH]nc(NCCNc2n[nH]cc2C2CC2)c1C1CC1` [Compound 1v, N^1,N^2-bis(4-Cyclopropyl-1H-pyrazol-3-yl)ethane-1,2-diamine bishydrochloride] registered an inhibition at 330 µM (24 h) of 15.3 ± 2.9%.

The term inhibition denotes the share of the control response that was lost under treatment.
